Assay results as given in US9682962B2, “Pyrazolyl pyrimidinamine compound and application thereof” (SHENYANG SINOCHEM AGROCHEMICALS R&D CO., LTD., priority 2013, dated 2017).

Columns and labels:
[1] = system: Green peach aphids (Myzus Persicae Sulzer); assay: Bioactivity test against green peach aphid (airbrush foliar spray); type: in vivo
Description: (§1) Compounds were dissolved in mixed solvent (acetone:methanol=1:1), and diluted to required concentration with water containing 0.1% of tween 80.
(§2) Diamond back moth, armyworm, peach aphid and carmine spider mite were used as targets and the method of spraying by airbrush was used for determination of insecticidal bioassays.
Method: Filter papers were put in culture dishes (Diameter=6 cm), and water was dripped on filter papers for preserving moisture. Green peach aphids (Myzus Persicae Sulzer) were maintained on cabbage. Leaves (Diameter=3 cm) of approximately 15-30 aphids were put in the culture dishes. Bioactivity tests were used the method of Airbrush Foliar Spray, pressure=10 psi (0.7 kg/cm2), spray volume=0.5 mL. The studies were conducted at […] 25±1 C in incubator cabinets with 60±5% RH. Survey the survival aphids after 48 h and calculate the death rates.

wheat powdery mildew = assay: Protectant activity in vivo (whole plant), wheat powdery mildew; details: protectant activity
Description: (§3) The method is as followed: The whole plant is used in this test. The compound is dissolved in a proper solvent to get mother solution. The proper solvent is selected from acetone, methanol, DMF and so on according to their dissolving capability to the sample. […] The testing solution is sprayed to the host plant by a special plant sprayer. The plant is inoculated with fungus after 24 hours. According to the infecting characteristic of fungus, the plant is stored in a humidity chamber and then transferred into greenhouse after infection is finished. And the other plants are placed in greenhouse directly.

diamond back moth = assay: Bioactivity test against diamond back moth (airbrush spray); type: in vivo; details: for control against diamond back moth (mortality): after 72 h
Description: as §1, §2
The method of spraying by airbrush: The cabbage leaves were made into plates of 2 cm diameter by use of punch. A test solution (0.5 ml) was sprayed by airbrush at the pressure of 0.7 kg/cm^2 to both sides of every plate. 10 Second instar larvae were put into the petri-dishes after the leaf disc air-dried and 3 replicates were set for each treatment. Then the insects were maintained in observation room (25° C., 60˜70% R.H.). Scores were conducted and mortalities were calculated after 72 h.

cucumber anthracnose = assay: Protectant activity in vivo (whole plant), cucumber anthracnose; details: for control effect against cucumber anthracnose (%): protectant activity
Description: as §3

cucumber downy mildew = assay: Protectant activity in vivo (whole plant), cucumber downy mildew; details: for control effect against cucumber downy mildew(%): protectant activity
Description: as §3

carmine spider mite = assay: Bioactivity test against carmine spider mite (airbrush spray); type: in vivo; details: Tetranychus cinnabarinus, 72 h, after 72 hrs, read-out: control against carmine spider mite (mortality)
Description: as §1, §2
The method: shoots with two true leaves in pot were taken, the healthy adults of carmine spider mite were inoculated to the leaves. The adults were counted and then sprayed with airbrush at the pressure of 0.7 kg/cm^2 and at dose of 0.5 ml. 3 replicates were set for each treatment. And then they were maintained in standard observation room. Scores were conducted and mortalities were calculated after 72 hrs.

rice blast = assay: microbe, parasite or virus in culture; type: cell-based; details: for inhibition at 25 ppm: Pyricularia oryzae, read-out: inhibition rate against rice blast, 25 ppm, in vitro; for inhibition rate against rice blast: in vitro
cucumber gray mold = assay: Fungicidal activity in vitro (96-cell culture board), cucumber gray mold; type: cell-based; details: read-out: inhibition rate against cucumber gray mold

SMILES	Insecticidal activity against peach aphid (%) ([1]; 600 mg/L)	control effect against wheat powdery mildew (%) (wheat powdery mildew; 400 mg/L)	Insecticidal activity against diamond back moth (%) (diamond back moth; 600 mg/L)	control effect against cucumber anthracnose (%) (cucumber anthracnose; 400 mg/L)	control effect against cucumber downy mildew(%) (cucumber downy mildew; 25 mg/L)	control effect against cucumber downy mildew(%) (cucumber downy mildew; 50 mg/L)	control effect against cucumber downy mildew(%) (cucumber downy mildew; 100 mg/L)	control effect against cucumber downy mildew(%) (cucumber downy mildew; 400 mg/L)	Insecticidal activity against peach aphid (%) ([1]; 100 mg/L)	control effect against wheat powdery mildew (%) (wheat powdery mildew; 6.25 mg/L)	control effect against wheat powdery mildew (%) (wheat powdery mildew; 25 mg/L)	control effect against wheat powdery mildew (%) (wheat powdery mildew; 100 mg/L)	also measured
Cc1cc(N(C)Cc2cnn(-c3ccccc3)c2)nc(C(C)C)n1 [CK4, reference compound]	0%	0%	0%	0%	0%	40%	50%	100%	–	–	–	–	–
CCc1ncnc(NCc2cnn(-c3ccccc3)c2C)c1Cl [CK1, reference compound]	91%	100%	43%	–	20%	95%	100%	100%	0%	0%	40%	60%	Insecticidal activity against peach aphid (%) ([1]; 10 mg/L): 0%
Cc1nc(C)c(Cl)c(NCCc2cnn(-c3ccc(Cl)cc3Cl)c2)n1 [Compound 1373]	–	–	–	–	100%	100%	100%	100%	–	–	–	–	mortality at 600 ppm (carmine spider mite): > 80%; inhibition at 25 ppm (rice blast): > 80%; control effect against cucumber downy mildew(%) (cucumber downy mildew; 12.5 mg/L): 100%; protectant activity against cucumber downy mildew in vivo (cucumber downy mildew; 3.125 ppm): 85%; protectant activity against cucumber downy mildew in vivo (cucumber downy mildew; 6.25 ppm): 95%
CC(C)(C)n1cc(CCNc2ncnc(C(F)F)c2Cl)cn1 [Compound 38]	100%	100%	–	100%	–	–	–	–	100%	40%	100%	100%	control effect against cucumber anthracnose (%) (cucumber anthracnose; 6.25 mg/L): 85%; control effect against cucumber anthracnose (%) (cucumber anthracnose; 25 mg/L): 90%; control effect against cucumber anthracnose (%) (cucumber anthracnose; 100 mg/L): 95%
CCc1ncnc(NCc2cnn(-c3ccccc3)c2C(F)(F)F)c1Cl [CK2, reference compound]	100%	100%	20%	–	20%	75%	100%	100%	55%	0%	20%	50%	Insecticidal activity against peach aphid (%) ([1]; 10 mg/L): 0%
Cc1ncnc(NCCc2cnn(-c3ccc(OC(F)(F)F)cc3)c2)c1Cl [Compound 318]	–	100%	–	100%	90%	98%	100%	100%	–	90%	100%	100%	control effect against cucumber anthracnose (%) (cucumber anthracnose; 0.78 mg/L): 98%; control effect against cucumber anthracnose (%) (cucumber anthracnose; 1.56 mg/L): 98%; control effect against cucumber anthracnose (%) (cucumber anthracnose; 3.13 mg/L): 100%; control effect against cucumber anthracnose (%) (cucumber anthracnose; 6.25 mg/L): 100%; control effect against cucumber anthracnose (%) (cucumber anthracnose; 25 mg/L): 100%; control effect against cucumber anthracnose (%) (cucumber anthracnose; 100 mg/L): 100%; protectant activity against cucumber anthracnose in vivo (cucumber anthracnose; 0.78 ppm): 98%; protectant activity against cucumber anthracnose in vivo (cucumber anthracnose; 1.56 ppm): 98%; protectant activity against cucumber anthracnose in vivo (cucumber anthracnose; 3.13 ppm): 100%
Cc1ncnc(NCCc2cnn(-c3ccccc3)c2)c1Cl [Compound 241]	–	–	100%	–	100%	100%	100%	100%	–	–	–	–	Insecticidal activity against diamond back moth (%) (diamond back moth; 10 mg/L): 29%; Insecticidal activity against diamond back moth (%) (diamond back moth; 100 mg/L): 71%; control against diamond back moth (mortality) (diamond back moth; 600 ppm): 100%; inhibition rate against rice blast (rice blast; 0.1 ppm): 80%; inhibition rate against rice blast (rice blast; 0.3 ppm): 80%; inhibition rate against rice blast (rice blast; 0.9 ppm): 100%; control effect against cucumber downy mildew(%) (cucumber downy mildew; 12.5 mg/L): 65%
FC(F)c1ncnc(NCCc2cnn(-c3ccc(C(F)(F)F)cc3)c2)c1Cl [Compound 865]	–	100%	100%	–	–	–	–	–	–	40%	80%	85%	Insecticidal activity against diamond back moth (%) (diamond back moth; 10 mg/L): 42%; Insecticidal activity against diamond back moth (%) (diamond back moth; 100 mg/L): 50%; control against diamond back moth (mortality) (diamond back moth; 600 ppm): 100%
Cc1nc(Cl)cc(N(C)Cc2c(C)nn(-c3ccccc3)c2C)n1 [CK5, reference compound]	100%	0%	0%	0%	–	–	–	85%	22%	–	–	–	Insecticidal activity against peach aphid (%) ([1]; 10 mg/L): 0%
CCc1ncnc(NCCc2cnn(-c3ccc(Cl)cc3)c2)c1Cl [Compound 537]	–	–	–	–	100%	100%	100%	100%	–	–	–	–	control effect against cucumber downy mildew(%) (cucumber downy mildew; 12.5 mg/L): 100%; protectant activity against cucumber downy mildew in vivo (cucumber downy mildew; 6.25 ppm): 98%; inhibition at 25 ppm (cucumber gray mold): > 80%
Cc1nc(C)c(C)c(N(C)Cc2cnn(-c3ccccc3)c2)n1 [CK3, reference compound]	77%	0%	0%	0%	0%	30%	40%	100%	19%	–	–	–	Insecticidal activity against peach aphid (%) ([1]; 10 mg/L): 0%
CCc1ncnc(NCCc2cnn(C(C)(C)C)c2)c1Cl [Compound 23]	100%	100%	–	–	–	–	–	–	94%	–	–	98%	mortality at 100 ppm (carmine spider mite; 100 ppm): > 80%; mortality at 600 ppm (carmine spider mite): > 80%
CCc1ncnc(NCCc2cnn(Cc3ccc(Cl)cc3)c2)c1Cl [Compound 5657]	–	–	–	–	–	–	–	–	–	–	–	–	melting point: 109.9 °C; inhibition at 25 ppm (rice blast): > 80%; inhibition at 25 ppm (cucumber gray mold): > 80%
CCc1ncnc(NCCc2cnn(-c3ccc(Cl)cc3)c2)c1Cl.Cl [Compound 10932]	–	–	100%	–	–	–	–	–	–	–	–	–	mortality at 600 ppm (carmine spider mite): > 80%; Insecticidal activity against diamond back moth (%) (diamond back moth; 10 mg/L): 25%; Insecticidal activity against diamond back moth (%) (diamond back moth; 100 mg/L): 50%; control against diamond back moth (mortality) (diamond back moth; 600 ppm): 100%; inhibition at 25 ppm (rice blast): > 80%
FC(F)c1ncnc(NCCc2cnn(-c3ccccc3)c2)c1Cl [Compound 797]	–	100%	100%	–	–	–	–	–	–	60%	100%	100%	Insecticidal activity against diamond back moth (%) (diamond back moth; 10 mg/L): 65%; Insecticidal activity against diamond back moth (%) (diamond back moth; 100 mg/L): 85%; control against diamond back moth (mortality) (diamond back moth; 100 ppm): 85%; control against diamond back moth (mortality) (diamond back moth; 600 ppm): 100%
